Assay results taken from US11753377B2, “Crystal form of 2-methyl-2-propanol and amino-substituted aryl compound” (ZHUHAI UNITED LABORATORIES CO., LTD., priority 2020, dated 2023).
Like-named read-outs stand apart in the source and are kept apart here.

Key:
[1] = In vitro aldehyde capture capacity experiment (complexation with nonanal, HPLC at 254 nm)
Excerpt: Experimental Embodiment 1: In Vitro Aldehyde Capture Capacity Experiment
1. Experiment Objectives and Processes
Objectives: Xerophthalmia is caused by inflammation inside the eyes, wherein the inflammation may produce aldehydes in the body that will accelerate the inflammation symptoms and worsen the xerophthalmia if not eliminated in time. In the experiment, a relatively good compound was selected according to the complexing capacity of the drug and aldehydes in vivo by simulating the in vivo environment.
Processes: Sulfobutyl-B-cyclodextrin (310 mg) was dissolved in a phosphate buffer (1.25 mL) to prepare a solution.
Nonanal (5.0 mg, 32 μmol, 1.0 eq) and triolein (300 mg) were added to a reaction flask at room temperature, after the prepared solution described above was added thereto, linoleic acid (300 mg) was added thereto, and finally a dimethyl sulfoxide (0.15 mL) solution containing the compound (32 μmol, 1.0 eq) of the present disclosure was added thereto; the reaction solution was reacted at 20-23° C.
The reaction solution was reacted under stirring for 10 min, 100 min, 200 min, and 300 min respectively, and sampled for high performance liquid chromatography after the solution was stratified after standing for 2 min.
Sampling method: 25 μL of an upper emulsified layer and 50 μL of a lower aqueous layer were sampled by a pipette, and samples were diluted with 1 mL of methanol.
Therefore, the percentage contents of complexes at 254 nm under high performance liquid chromatography were compared to observe the ability of compounds to capture and complex aldehydes, as shown in FIG. 4 and Table 6:
The HPLC analysis method is detailed in Table 7, which is XBRIGE 2.5 μm, 3.0*100 mm 5-80CD_XBEH_12 min_0.8.lcm
After 300 min of reaction, retention times of 6.689 min, 6.787 min, 6.966 min, and 7.102 min were absorption peaks of products complexed with monomolecular aldehyde; retention times of 8.905 min, 9.010 min, and 9.075 min were absorption peaks of products complexed with bimolecular aldehyde.

CYP1A2 = biological target: T1, CYP1A2 (Homo sapiens, UniProt P05177); assay: Inhibition of human liver microsomal cytochrome P450 CYP1A2; format: in vitro ADME; conditions: pooled human liver microsomes, probe substrate, NADPH
T1 construct: pooled human liver microsomes were selected as a CYP450 enzyme source; from tissue; host or cells: pooled human liver microsomes
T1 sequence (P05177 1-516): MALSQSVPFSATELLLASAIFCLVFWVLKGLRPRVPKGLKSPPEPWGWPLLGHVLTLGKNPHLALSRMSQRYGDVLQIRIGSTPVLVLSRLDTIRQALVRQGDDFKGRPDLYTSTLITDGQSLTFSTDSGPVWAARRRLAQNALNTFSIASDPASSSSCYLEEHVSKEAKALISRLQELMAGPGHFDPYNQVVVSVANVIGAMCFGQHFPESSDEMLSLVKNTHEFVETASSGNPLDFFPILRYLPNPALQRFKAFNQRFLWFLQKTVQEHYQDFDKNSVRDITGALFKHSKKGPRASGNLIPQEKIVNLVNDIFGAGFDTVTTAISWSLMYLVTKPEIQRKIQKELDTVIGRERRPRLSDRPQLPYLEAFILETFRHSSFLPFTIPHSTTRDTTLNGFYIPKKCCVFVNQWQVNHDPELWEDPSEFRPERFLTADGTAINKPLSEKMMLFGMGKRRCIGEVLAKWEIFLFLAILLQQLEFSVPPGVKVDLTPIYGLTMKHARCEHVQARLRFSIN
Excerpt: (§1) Experimental objective: To study the inhibitory effect of compounds on human liver microsomal cytochrome P450. Experimental processes: In the study on inhibition of the compounds on the human liver microsomal cytochrome P450 (CYP1A2, CYP2C9, CYP2C19, CYP2D6 and CYP3A4), pooled human liver microsomes were selected as a CYP450 enzyme source.

CYP2C9 = biological target: T2, CYP2C9 (Homo sapiens, UniProt P11712); assay: Inhibition of human liver microsomal cytochrome P450 CYP2C9; format: in vitro ADME; conditions: pooled human liver microsomes, probe substrate, NADPH
T2 construct: pooled human liver microsomes were selected as a CYP450 enzyme source; from tissue; host or cells: pooled human liver microsomes
Excerpt: as §1

CYP2C19 = biological target: T3, CYP2C19 (Homo sapiens, UniProt P33261); assay: Inhibition of human liver microsomal cytochrome P450 CYP2C19; format: in vitro ADME; conditions: pooled human liver microsomes, probe substrate, NADPH
T3 construct: pooled human liver microsomes were selected as a CYP450 enzyme source; from tissue; host or cells: pooled human liver microsomes
Excerpt: as §1

CYP2D6 = biological target: T4, CYP2D6 (Homo sapiens, UniProt P10635); assay: Inhibition of human liver microsomal cytochrome P450 CYP2D6; format: in vitro ADME; conditions: pooled human liver microsomes, probe substrate, NADPH
T4 construct: pooled human liver microsomes were selected as a CYP450 enzyme source; from tissue; host or cells: pooled human liver microsomes
Excerpt: as §1

CYP3A4 = biological target: T5, CYP3A4 (Homo sapiens, UniProt P08684); assay: Inhibition of human liver microsomal cytochrome P450 CYP3A4; format: in vitro ADME; conditions: pooled human liver microsomes, two probe substrates, NADPH
T5 construct: pooled human liver microsomes were selected as a CYP450 enzyme source; from tissue; host or cells: pooled human liver microsomes
Excerpt: as §1

[2] = Pharmacokinetics in Beagle dogs, single intravenous injection; format: in vivo; conditions: male, dog, plasma, 1 mg/kg single intravenous injection
Method: Experimental objective: To study pharmacokinetics of the compound in Beagle dogs
Experimental material: Beagle dogs (male, 8-11 kg, greater than or equal to 6 months, Marshall)
(§2) Pharmacokinetic characteristics of the compound were tested by intravenous injection in rodents according to the standard protocol. In the experiment, the candidate compound was prepared as a clear solution, and was administrating to Beagle dogs at 1 mg/kg by single intravenous injection. A vehicle for intravenous injection was a 10% hydroxypropyl β-cyclodextrin aqueous solution. Whole blood samples were collected at 0.033, 0.083, 0.25, 0.5, 1, 2, 4, 8, 12, and 24 hours, respectively, centrifuged at 3000 r for 10 min, and the supernatant was separated to obtain plasma samples. 20 μL of plasma samples were mixed with 400 μL of acetonitrile solution containing internal standard to precipitate protein, and the mixture was centrifuged, then 2 μL of the supernatant was injected. Plasma concentrations were quantitatively analyzed by LC-MS/MS analysis method, and pharmacokinetic parameters, such as clearance rate, half-life, and area under the concentration-time curve, were calculated.

[3] = Pharmacokinetics in cynomolgus monkeys, single intravenous injection; format: in vivo; conditions: male, cynomolgus monkey, plasma, 1 mg/kg single intravenous injection
Method: Experimental objective: To study pharmacokinetics of the compound in cynomolgus monkeys
Experimental material: Cynomolgus monkeys (male, 2.5-4 kg, greater than or equal to 2 years, Hainan Jingang)
as §2, with “monkeys” for “rodents”, “cynomolgus monkeys” for “Beagle dogs”, “hours,” for “hours, respectively,”

[4] = Corneal to plasma drug concentration after eye drop administration in rats; format: in vivo; conditions: male, rat, topical, SD rats
Method: Experimental objective: To study the ratio of corneal to plasma drug concentration after eye drop administration in rats
Experimental material: Male SD rats, 200-300 g, 7-9 weeks old, Shanghai Lingchang
Experimental processes: The candidate compound was prepared as a clear solution, and administrating to SD rats by eye drop administration. The vehicle for eye drops was 10% hydroxypropyl β-cyclodextrin aqueous solution, and the drug concentration in the eye drops was 5 mg/mL. Corneal and whole blood samples were collected at 1 and 4 hours, respectively. Corneal was homogenized using 15 mM phosphate buffer (PBS): MeOH (2:1, v:v) buffer, then the whole blood samples were centrifuged at 3000 r for 10 min, and the supernatant plasma samples were separated. 20 μL of the plasma samples and homogenate samples were respectively mixed with 400 μL of acetonitrile solution containing internal standard to precipitate protein, and the mixture was centrifuged, then 2 μL of the supernatant was injected. The plasma concentrations were quantitatively analyzed by LC-MS/MS analysis method; the drug concentrations in the cornea and plasma were measured respectively according to different time points, and the ratio of corneal/plasma was calculated.

xerophthalmia in mice = assay: In vivo efficacy: scopolamine-induced xerophthalmia in mice (tear test, corneal fluorescence staining score); set-up: species or system C57BL/6J mice; conditions: scopolamine model, 0.5% eye drops 3 μL/eye 4 times/day
Excerpt: Subcutaneous injection of scopolamine may induce the xerophthalmia in mice. Decreased tear secretion and inflammatory infiltration can be observed by tear tests and corneal fluorescence staining scores. Furthermore, it is possible to predict whether the model can reach the expected severity at the beginning of the modeling.
Experimental Design: • Twenty animals were selected from 25 female C57BL/6J mice and randomized into 4 groups by body weight via Provantis or Excel, […], and the grouping might also refer to the results of the tear test and the corneal fluorescence staining score of each animal prior to the experiment. • The mice were injected subcutaneously with scopolamine hydrobromide (3±0.5 h) for 4 times daily at 0.1 mL/animal/time on Day 1 to Day 12 of the experiment to establish xerophthalmia models in the mice. • On Day 1 to Day 13 of the experiment, animals were administrated by binocular eye drops for 4 times daily (3±0.5 h) at 3 μL/eye (on Day 13, animals in Group 1 were not administrated). […]
Tear tests and corneal fluorescence staining scores were performed on all experimental animals on Day 7 and Day 12 prior to modeling.
Criteria for corneal fluorescence staining scores: The cornea of an animal was divided into 5 regions, respectively being upper, lower, nasal, temporal and central regions, and each region was 0-3 points, and each region was scored. […]

[5] = read-out: Area under the concentration-time curve AUC
[6] = read-out: Half-life T1/2 (converted)

T3 sequence (P33261 whole entry): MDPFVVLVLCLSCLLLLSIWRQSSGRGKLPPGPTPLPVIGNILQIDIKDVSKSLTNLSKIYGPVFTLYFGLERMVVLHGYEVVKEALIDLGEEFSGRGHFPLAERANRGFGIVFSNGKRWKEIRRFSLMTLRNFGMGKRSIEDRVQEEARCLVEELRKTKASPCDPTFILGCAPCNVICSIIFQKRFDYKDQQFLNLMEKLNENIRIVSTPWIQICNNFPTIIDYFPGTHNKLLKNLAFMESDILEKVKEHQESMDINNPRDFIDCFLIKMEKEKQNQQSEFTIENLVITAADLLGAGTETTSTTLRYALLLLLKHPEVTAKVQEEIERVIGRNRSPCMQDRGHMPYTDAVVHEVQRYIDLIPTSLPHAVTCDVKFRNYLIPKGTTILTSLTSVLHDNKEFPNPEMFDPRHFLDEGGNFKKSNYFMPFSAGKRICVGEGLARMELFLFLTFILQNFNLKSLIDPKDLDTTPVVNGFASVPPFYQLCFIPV
T2 sequence (P11712 whole entry): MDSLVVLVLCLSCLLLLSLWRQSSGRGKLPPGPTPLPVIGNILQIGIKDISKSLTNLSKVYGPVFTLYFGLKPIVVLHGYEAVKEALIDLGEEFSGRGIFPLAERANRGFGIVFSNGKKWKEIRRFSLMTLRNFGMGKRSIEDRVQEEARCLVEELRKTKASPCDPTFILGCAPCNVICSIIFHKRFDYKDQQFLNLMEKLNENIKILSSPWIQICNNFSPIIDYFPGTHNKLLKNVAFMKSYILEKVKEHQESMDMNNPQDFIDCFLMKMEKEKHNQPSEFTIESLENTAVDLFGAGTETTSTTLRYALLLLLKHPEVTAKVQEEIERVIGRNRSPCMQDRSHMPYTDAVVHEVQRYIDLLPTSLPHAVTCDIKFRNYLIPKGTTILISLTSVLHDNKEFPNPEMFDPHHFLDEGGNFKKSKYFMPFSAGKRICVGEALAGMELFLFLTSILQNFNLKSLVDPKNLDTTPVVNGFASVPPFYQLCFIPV
T4 sequence (P10635 whole entry): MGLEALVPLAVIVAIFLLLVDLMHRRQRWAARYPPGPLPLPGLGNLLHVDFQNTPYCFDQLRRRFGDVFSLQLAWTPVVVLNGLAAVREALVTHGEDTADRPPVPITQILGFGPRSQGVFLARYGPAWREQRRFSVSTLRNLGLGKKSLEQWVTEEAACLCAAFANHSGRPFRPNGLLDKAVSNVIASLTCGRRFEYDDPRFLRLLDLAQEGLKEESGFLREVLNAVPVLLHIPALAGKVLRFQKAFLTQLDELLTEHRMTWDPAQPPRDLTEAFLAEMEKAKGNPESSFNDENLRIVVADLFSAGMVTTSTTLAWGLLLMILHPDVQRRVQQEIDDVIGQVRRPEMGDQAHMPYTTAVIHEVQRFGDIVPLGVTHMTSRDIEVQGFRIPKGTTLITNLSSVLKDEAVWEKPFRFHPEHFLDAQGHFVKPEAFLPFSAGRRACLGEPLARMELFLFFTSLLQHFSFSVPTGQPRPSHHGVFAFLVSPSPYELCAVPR
T5 sequence (P08684 whole entry): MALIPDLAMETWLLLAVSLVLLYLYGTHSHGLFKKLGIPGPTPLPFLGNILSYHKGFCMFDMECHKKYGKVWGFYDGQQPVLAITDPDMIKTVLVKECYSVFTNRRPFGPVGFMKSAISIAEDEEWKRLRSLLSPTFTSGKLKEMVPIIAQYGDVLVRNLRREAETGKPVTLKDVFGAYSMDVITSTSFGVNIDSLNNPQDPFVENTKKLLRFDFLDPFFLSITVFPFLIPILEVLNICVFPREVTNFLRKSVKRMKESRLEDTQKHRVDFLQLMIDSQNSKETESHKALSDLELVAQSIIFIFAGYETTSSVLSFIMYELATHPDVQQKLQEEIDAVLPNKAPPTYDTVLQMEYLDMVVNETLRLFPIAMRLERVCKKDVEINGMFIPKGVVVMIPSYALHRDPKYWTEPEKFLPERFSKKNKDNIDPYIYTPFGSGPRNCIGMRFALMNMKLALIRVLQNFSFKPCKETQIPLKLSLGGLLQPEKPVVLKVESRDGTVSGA

With `CC(C)(O)c1cc(F)c(-c2cnc(C(C)(C)O)c(N)c2)cc1N` [Compound represented by formula (I)] the “Ability and speed of complexing aldehydes” value [1] was “very significant”, the “Percentage content of complexes at 254 nm” value (“Percentage content” below) ([1]; Time 10 min) was 6.634% and the “Percentage content” value ([1]; Time 100 min) was 20.013%. The “Percentage content” value ([1]; Time 200 min) was 29.424%, the “Percentage content” value ([1]; Time 300 min) was 36.039% and the “Area under the curve AUC” value ([1]; percentage content of complexes at 254 nm versus time, 10-300 min) was 6944 min.conversion. It also gave a Slope ([1]; slope of linear equation, percentage content of complexes at 254 nm versus time 10-300 min, nonanal 1.0 eq, 20-23° C.) of 0.1002, an IC50 (CYP1A2) greater than 50 µM and an IC50 (CYP2C9) greater than 50 µM. The IC50 (CYP2C19) was greater than 50 µM, the IC50 (CYP2D6) was greater than 50 µM and the IC50 (CYP3A4) was greater than 50 µM. It also gave an AUC [2, 5] of 4.67 µM·h, a clearance ([2]; read-out: Clearance rate) of 11.3 mL/min/kg and a half-life [2, 6] of 2.94 h. The AUC [3, 5] was 13 µM·h, the clearance ([3]; read-out: Clearance rate) was 4.6 mL/min/kg and the half-life [3, 6] was 3.91 h. For the same compound, the concentration at 1 h ([4]; cornea, eye drops 5 mg/mL, 1 h, read-out: Corneal concentration) was 2450 nM, the concentration at 4 h ([4]; cornea, eye drops 5 mg/mL, 4 h, read-out: Corneal concentration) was 330 nM and the Kp ([4]; cornea/plasma, 5 mg/mL, eye drop administration, read-out: Ratio of cornea/plasma) was greater than 10. For the same compound, the Kp at 1 h ([4]; cornea/plasma, eye drops 5 mg/mL, 1 h, read-out: Corneal concentration/plasma concentration C/P ratio) was 11.8, the Kp at 4 h ([4]; cornea/plasma, eye drops 5 mg/mL, 4 h, read-out: Corneal concentration/plasma concentration C/P ratio) was 12.4 and the concentration at 1 h ([4]; plasma, eye drops 5 mg/mL, 1 h, read-out: Plasma concentration) was 172 nM. The concentration at 4 h ([4]; plasma, eye drops 5 mg/mL, 4 h, read-out: Plasma concentration) was 24.4 nM, the Tear secretion (xerophthalmia in mice; FIG. 5) was “improve” and the “Corneal inflammation (corneal fluorescence staining)” value (xerophthalmia in mice; FIG. 6) was “improve”.
